Experimental data from US20060276412A1, “METHODS AND COMPOSITIONS FOR MANAGING PSYCHOTIC DISORDERS” (priority 2005, published 2006).

Assays:
[1] = tested on: serotonin (5HT) in medial prefrontal cortex; assay: Brain microdialysis: serotonin in mPFC; format: in vivo, rats; conditions: 3 mg/kg olanzapine
Text: (§1) 62 adult Sprague-Dawley male rats (Harland, Indianapolis) weighing 300-350 g were used in the following studies. The rats were quarantined for at least five days in group housing. Following the quarantine procedure, rats were maintained in individual cages. For surgical implantation with intracerebral guides, guides were inserted directly above either the hypothalamus (HT) (31 rats), or the medial prefrontal cortex (mPFC) (31 rats). Stereotaxic coordinates (Paxinos and Watson, 1986) provided below were used to position the guide cannulae and/or probes: Animals were anesthetiszed according using standard procedures. The head of each animal was shaved from the front of the eyes to the back of the skull. Shaved areas were disinfected, and the animals were placed in stereotaxic frame ear bars. The animal was aligned with the incisor bar. The animal's scalp was cut with a sharp #15 scalpel blade. If the bone began to bleed, bone wax was applied to the incision. Periosteal tissue was cleaned from the skull to the lateral ridges with a cotton swab, and clamps were used to pull the skin out of the way. The probe or guide was placed in the clamp, such that the angled outlet cannula of the microdialysis probe was angled towards the animal's tail. The target coordinates were calculated, and this point was marked on the skull. Two holes in opposing skull bones were drilled for bone anchor screws and thread screws. The dura was torn away with a sharp, pointed object. The guide cannulae were placed at the dorsal/ventral zero point. […] Using dental acrylic, the cannulae were cemented to the bone anchor screws. The cement was allowed to harden and the rodent was removed from the stereotaxic frame. The cranial and caudal aspects of the incision were sutured. The animals were allowed to recover for three to five days. Stylets in the guides were replaced with dialysis probes on the evening prior to study to allow for animal acclimation and to reestablish the integrity of the blood brain barrier. […] Rats were weighed pre-surgery, every 1-2 days post-surgery until time of microdialysis, and postmortem. Microdialysis probes used in the experiments described below were first soaked in standard Ringer's perfusion medium for 30 minutes. Inlet and outlet tubing was connected to each probe using flanged connectors. The outlet tubing was connected to a fraction collector, and the inlet was connected to and […] syringe drive. The probes were immersed in fresh Ringer's solution and flushed with Ringer's perfusion medium at a rate of 2 μl/min for 1 hour. The probe was then transferred to the intracerebral guide on the rat's skull. […] Water was added to obtain a final concentration of 0.3 mg/ml. […] Zonisamide was dissolved in DMSO. […] The final concentration of zonisamide was 7.5 mg/ml. The drug solution was maintained at 37° C. prior to injection. The rats were divided into ten test groups. Five animals were analyzed for each test group. The test groups were as follows: For the microdialysis experiments, perfusion consisted of 2 μl/min delivery of sterile standard Ringer's solution for intervals of 20 minutes. Final collection volumes were 40 μl. 30 μl samples were analyzed for each analyte: DA, NE, 5HT. 12 pre-dose samples and 12 post dose samples were collected every 20 minutes for a duration of 4 hours, both pre-dose and post-dose. Six samples from the pre-dose and post-dose collections were analyzed for norepinephrine. The remaining six samples from the pre-dose and post-dose collections were analyzed for both dopamine and serotonin. Samples were chilled to -80° C. immediately following collection. The samples were analyzed using liquid chromatography with electrochemical detection using conventional techniques. See, e.g., Huang, T., R. et al. (1994) New […] Microbore Columns for Liquid Chromatography. Current Separations 12(4): 191-195. […] Concentrations of each compound are expressed as % baseline.

[2] = tested on: serotonin receptors; conditions: cited from earlier work
[3] = tested on: serotonin (5HT) in hypothalamus; assay: Brain microdialysis: serotonin in hypothalamus; format: in vivo, rats; conditions: 3 mg/kg olanzapine
Text: as §1

[4] = tested on: histaminic receptors; conditions: cited from earlier work
[5] = cited from earlier work
[6] = tested on: dopamine receptors; conditions: cited from earlier work
[7] = tested on: alpha-adrenergic receptors; conditions: cited from earlier work
[8] = tested on: dopamine (DA) in hypothalamus; assay: Brain microdialysis: dopamine in hypothalamus; format: in vivo, rats; conditions: 3 mg/kg olanzapine
Text: as §1

[9] = tested on: dopamine (DA) in medial prefrontal cortex; assay: Brain microdialysis: dopamine in mPFC; format: in vivo, rats; conditions: 3 mg/kg olanzapine
Text: as §1

[10] = tested on: norepinephrine (NE) in medial prefrontal cortex; assay: Brain microdialysis: norepinephrine in mPFC; format: in vivo, rats; conditions: 3 mg/kg olanzapine
Text: as §1

[11] = tested on: norepinephrine (NE) in hypothalamus; assay: Brain microdialysis: norepinephrine in hypothalamus; format: in vivo, rats; conditions: 3 mg/kg olanzapine
Text: as §1

Cc1cc2c(s1)Nc1ccccc1N=C2N1CCN(C)CC1 [olanzapine]
Serotonin concentrations in mPFC ([1]; 3 HOUR AVE): 88.1078 % baseline
Serotonin concentrations in mPFC ([1]; 40 min post dose): 115.609 % baseline
Serotonin concentrations in mPFC ([1]; 80 min post dose): 101.724 % baseline
Serotonin concentrations in mPFC ([1]; 120 min post dose): 88.189 % baseline
Serotonin concentrations in mPFC ([1]; 160 min post dose): 92.085 % baseline
Serotonin concentrations in mPFC ([1]; 200 min post dose): 119.171 % baseline
Serotonin concentrations in mPFC ([1]; 240 min post dose): 83.828 % baseline
Serotonin concentrations in mPFC ([1]; -20 min pre dose): 98.453 % baseline
Serotonin concentrations in mPFC ([1]; -60 min pre dose): 100.982 % baseline
Serotonin concentrations in mPFC ([1]; -100 min pre dose): 100.565 % baseline
affinity for serotonin receptors [2]: high affinity
Serotonin concentrations in hypothalamus ([3]; 3 HOUR AVE): 89.0647 % baseline
Serotonin concentrations in hypothalamus ([3]; 40 min post dose): 89.816 % baseline
Serotonin concentrations in hypothalamus ([3]; 80 min post dose): 86.183 % baseline
Serotonin concentrations in hypothalamus ([3]; 120 min post dose): 92.131 % baseline
Serotonin concentrations in hypothalamus ([3]; 160 min post dose): 80.560 % baseline
Serotonin concentrations in hypothalamus ([3]; 200 min post dose): 98.707 % baseline
Serotonin concentrations in hypothalamus ([3]; 240 min post dose): 88.921 % baseline
Serotonin concentrations in hypothalamus ([3]; -20 min pre dose): 107.440 % baseline
Serotonin concentrations in hypothalamus ([3]; -60 min pre dose): 98.601 % baseline
Serotonin concentrations in hypothalamus ([3]; -100 min pre dose): 93.959 % baseline
affinity for histaminic receptors [4]: lower affinity
patients with a weight gain of ≧7% ([5]; analysis of four studies of various durations): 40%
time at which induced weight gain peaks ([5]; noticeable in the first month of treatment): about 9 months
affinity for dopamine receptors [6]: high affinity
affinity for alpha-adrenergic receptors [7]: lower affinity
Dopamine concentrations in hypothalamus ([8]; 3 HOUR AVE): 125.98 % baseline
Dopamine concentrations in hypothalamus ([8]; 40 min post dose): 156.507 % baseline
Dopamine concentrations in hypothalamus ([8]; 80 min post dose): 110.363 % baseline
Dopamine concentrations in hypothalamus ([8]; 120 min post dose): 183.338 % baseline
Dopamine concentrations in hypothalamus ([8]; 160 min post dose): 89.032 % baseline
Dopamine concentrations in hypothalamus ([8]; 200 min post dose): 113.293 % baseline
Dopamine concentrations in hypothalamus ([8]; 240 min post dose): 95.959 % baseline
Dopamine concentrations in hypothalamus ([8]; -20 min pre dose): 99.830 % baseline
Dopamine concentrations in hypothalamus ([8]; -60 min pre dose): 93.473 % baseline
Dopamine concentrations in hypothalamus ([8]; -100 min pre dose): 106.697 % baseline
Dopamine concentrations in mPFC ([9]; 3 HOUR AVE): 209.94 % baseline
Dopamine concentrations in mPFC ([9]; 40 min post dose): 227.023 % baseline
Dopamine concentrations in mPFC ([9]; 80 min post dose): 266.655 % baseline
Dopamine concentrations in mPFC ([9]; 120 min post dose): 219.135 % baseline
Dopamine concentrations in mPFC ([9]; 160 min post dose): 186.256 % baseline
Dopamine concentrations in mPFC ([9]; 200 min post dose): 202.788 % baseline
Dopamine concentrations in mPFC ([9]; 240 min post dose): 153.048 % baseline
Dopamine concentrations in mPFC ([9]; -20 min pre dose): 105.509 % baseline
Dopamine concentrations in mPFC ([9]; -60 min pre dose): 119.009 % baseline
Dopamine concentrations in mPFC ([9]; -100 min pre dose): 75.482 % baseline
Norepinephrine concentrations in mPFC ([10]; 3 HOUR AVE): 154.642 % baseline
Norepinephrine concentrations in mPFC ([10]; 20 min post dose): 162.923 % baseline
Norepinephrine concentrations in mPFC ([10]; 60 min post dose): 197.693 % baseline
Norepinephrine concentrations in mPFC ([10]; 100 min post dose): 159.929 % baseline
Norepinephrine concentrations in mPFC ([10]; 140 min post dose): 141.759 % baseline
Norepinephrine concentrations in mPFC ([10]; 180 min post dose): 147.978 % baseline
Norepinephrine concentrations in mPFC ([10]; 220 min post dose): 117.569 % baseline
Norepinephrine concentrations in mPFC ([10]; -40 min pre dose): 98.000 % baseline
Norepinephrine concentrations in mPFC ([10]; -80 min pre dose): 119.880 % baseline
Norepinephrine concentrations in mPFC ([10]; -120 min pre dose): 82.120 % baseline
Norepinephrine concentrations in hypothalamus ([11]; 3 HOUR AVE): 129.18 % baseline
Norepinephrine concentrations in hypothalamus ([11]; 20 min post dose): 161.934 % baseline
Norepinephrine concentrations in hypothalamus ([11]; 60 min post dose): 148.422 % baseline
Norepinephrine concentrations in hypothalamus ([11]; 100 min post dose): 115.418 % baseline
Norepinephrine concentrations in hypothalamus ([11]; 140 min post dose): 118.651 % baseline
Norepinephrine concentrations in hypothalamus ([11]; 180 min post dose): 113.533 % baseline
Norepinephrine concentrations in hypothalamus ([11]; 220 min post dose): 115.014 % baseline
Norepinephrine concentrations in hypothalamus ([11]; -40 min pre dose): 105.631 % baseline
Norepinephrine concentrations in hypothalamus ([11]; -80 min pre dose): 103.272 % baseline
Norepinephrine concentrations in hypothalamus ([11]; -120 min pre dose): 91.097 % baseline
